Data taken from patent publication US10214495B2, “Anti-malarial agents” (MMV MEDICINES FOR MALARIA VENTURE, priority 2015, dated 2019).
Values after ≈ are worked out from the molar mass of the structure shown. Read-outs that look alike come from different tables or passages of the source.

Tests used:
P. falciparum NF54 = experiment: In vitro P. falciparum growth inhibition, sensitive NF54 strain; format: cell-based; details: Plasmodium falciparum, read-out: P. fal. NF54 IC50
Procedure: (§1) The ability of aminopyrazine derivatives according to the invention to kill P. falciparum parasites and/or to inhibit its proliferation is assayed through their ability to inhibit Plasmodium falciparum growth. Compounds were screened against multidrug resistant (K1) and sensitive (NF54) strains of P. falciparum in vitro as described by Vennerstrom et al. 2004, Nature, 430, 900-904.

P. falciparum K1 = experiment: In vitro P. falciparum growth inhibition, multidrug resistant K1 strain; format: cell-based; details: Plasmodium falciparum, read-out: P. fal K1 IC50
Procedure: as §1

hPI4KB = hPI4KB (Homo sapiens, UniProt Q9UBF8); experiment: PI4KB lipid kinase ADP-Glo assay; format: biochemical; details: ATP 10 μM, PI substrate 50 μM
Chain of hPI4KB (Q9UBF8 whole entry): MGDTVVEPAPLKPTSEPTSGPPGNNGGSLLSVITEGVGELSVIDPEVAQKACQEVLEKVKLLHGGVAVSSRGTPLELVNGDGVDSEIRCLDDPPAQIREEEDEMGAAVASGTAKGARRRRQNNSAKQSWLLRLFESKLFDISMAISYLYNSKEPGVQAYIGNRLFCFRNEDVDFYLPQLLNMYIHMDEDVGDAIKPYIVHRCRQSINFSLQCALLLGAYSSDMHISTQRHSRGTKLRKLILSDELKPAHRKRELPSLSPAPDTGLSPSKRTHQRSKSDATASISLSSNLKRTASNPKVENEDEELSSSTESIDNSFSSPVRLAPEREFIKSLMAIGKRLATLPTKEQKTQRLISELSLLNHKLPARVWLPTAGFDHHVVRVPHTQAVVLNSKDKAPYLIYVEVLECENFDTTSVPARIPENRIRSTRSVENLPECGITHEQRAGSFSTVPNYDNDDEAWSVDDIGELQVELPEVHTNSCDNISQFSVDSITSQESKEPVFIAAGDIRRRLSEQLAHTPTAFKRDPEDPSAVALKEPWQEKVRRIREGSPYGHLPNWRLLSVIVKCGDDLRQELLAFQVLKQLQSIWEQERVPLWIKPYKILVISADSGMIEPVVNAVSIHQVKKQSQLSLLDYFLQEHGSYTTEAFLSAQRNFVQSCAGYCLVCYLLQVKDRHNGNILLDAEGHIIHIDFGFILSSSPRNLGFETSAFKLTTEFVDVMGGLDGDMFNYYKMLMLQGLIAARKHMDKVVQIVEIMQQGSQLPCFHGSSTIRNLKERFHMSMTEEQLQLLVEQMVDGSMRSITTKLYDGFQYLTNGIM
Procedure: The compounds of the invention were tested on their ability to inhibit the human PI4K kinase. The non-radiometric ADP-Glo™ Assay (Promega, Madison, Wis., USA) was used for measuring the activity of the PI4KB lipid kinase. All kinase assays were performed in 96-well half-area microtiter plates from Greiner Bio-One (Frickenhausen, Germany) in a 25 μl reaction volume. The reaction cocktail was pipetted in 3 steps in the following order:
10 μl of ATP solution (in assay buffer, see below)
5 μl of test sample in 10% DMSO
10 μl of enzyme/substrate mixture
PI4KB assay contained 50 mM HEPES-NaOH, pH 7.5, 1 mM EGTA, 100 mM NaCl, 0.03% CHAPS, 2 mM DTT, ATP, 10 μM, PI4KB kinase, 20 ng/25 μL, PI substrate 50 μM. and3 mM MnCl2.
The reaction cocktails were incubated at 30° C. for 40 minutes. The reaction was stopped with 25 μl ADP-Glo reagent per well. Plates were incubated for 40 minutes at room temperature, followed by addition of 50 μl kinase detection reagent per well and incubation for further 60 minutes at room temperature. Signal was measured with a microplate multilable reader (Victor2, Perkin Elmer, Boston, Mass., USA), in luminescence mode.
All assays were performed with a BeckmanCoulter Biomek 2000/SL robotic system. The median value of the counts (n=8) of each assay plate was defined as “low control”. This value reflects unspecific binding of radioactivity to the plate in the absence of a protein kinase but in the presence of the substrate. […]
As part of the data evaluation the low control value from a particular plate was subtracted from the high control value as well as from all 80 “compound values” of the corresponding plate. The residual activity (in %) for each well of a particular plate was calculated by using the following formula (i): Res. Activity (%)=100×[(cpm of compound−low control)/(high control−low control)] […]
The residual activities for each concentration and the compound IC50 values were calculated using Quattro Workflow V3.1.0 (Quattro Research GmbH, Munich, Germany; www.quattro-research.com). […]

[1] = Kinetic solubility by HPLC; format: physicochemical; details: kinetic from dmso stock, room temperature
Procedure: Dilutions were prepared to a theoretical concentration of 200 μM (n=2) in phosphate buffered saline (PBS) pH 6.5 (in 2% DMSO), in 0.01 M HCl pH 2 (in 2% DMSO) and in biologically relevant gastrointestinal media, fasted state simulated intestinal fluid, FaSSIF (in 2% DMSO). Calibration curves (11-220 μM) were prepared in DMSO. All dilutions were equilibrated at room temperature and mixed for 2 hours on an orbital shaker. The concentration of the test compounds was determined by HPLC using a Kinetex C18 column (2.1 mm×50 mm, 2.6 μm) at a column temperature of 35° C. An injection volume of 5 μL was used with a mobile phase flow rate of 0.6 mL/min. The mobile phase gradient method was as follows in Table 1: […]
Mobile phase A: 0.1% formic acid in 5% acetonitrile/water (v/v) (pH 3.1)
Mobile phase B: 0.1% formic acid in acetonitrile (pH 3.1)
Compound concentration (x) in the PBS/FASSIF/HC1 samples was calculated from the peak area (y) in the UV chromatogram by extrapolation from a three point calibration curve using the relationship: y=ax+b, where a is the slope and b is the intercept. Solubility was reported in the range <5-220 μM.

[2] = Pharmacokinetics in rats (iv and oral); format: in vivo; details: rat; for Apparent T1/2 / Plasma Cl / Vd: 5.0 mg/kg iv
Procedure: Compounds of the invention were tested for their pharmacokinetics in rats according to the protocol below. Two different formulations were used to dose the compound of the invention as described in Table 3 below
Compound (1) was prepared for administration immediately prior to the experiment. The dose was prepared according to the average weight of the animals and an assumed volume of 350 μL of vehicle (IV) or 1000 μL of vehicle (oral). Volumes were adjusted io for each animal's individual weight to dose the compound at 5 mg/kg for the IV group (n=3 rats) and 20 mg/kg to the oral group (n=3). Water was supplied ad libitum, but animals were starved for 12 hours prior to dosing. Food was reinstated 5 hours post-dose.
The orally-treated animals were dosed by gavage with the drug introduced as a bolus. The IV-treated animals were anaesthetized and the drug was administered by infusion over a period of 2 minutes. Doses were staggered to allow for accurately timed sampling. Blood was collected at predetermined time-points to evaluate the kinetic profile over 24-48 hours. Blood sampling schedule, measured in hours post-dose, for the two groups of rats after the administration of Compound (1) are presented in Table 4 below:
Whole blood was collected via the tail vein into heparinised microcentrifugation tubes and stored on ice. Within 60 minutes of collection, samples were transferred to a freezer and stored at −80 ° C. until analysis was carried out via LC/MS/MS.
The extraction process was carried out on ice. To extract the drug for analysis, 30 μL of whole blood from each sample as well as from a series of standards and quality controls was transferred to a 96-well plate. A volume of 90 μL of cold methanol containing a suitable internal standard (approx. 60 ng/mL was added to each well and the plate was sealed and vortexed vigorously for 60 seconds to precipitate the proteins and release the compounds into the solvent). These were then centrifuged at 10000 G for 10 minutes to pellet the proteins and cellular debris, and the supernatant was transferred to a duplicate 96-well plate. The plate was transferred to the LC/MS/MS and held at 4° C. until all samples were injected onto the column.
LC/MS/MS analysis was carried out with 5 μL of each sample, using a method which was developed for simultaneous detection of compound (1) and the internal standard using a Phenomenex Hydro-RP column at 20° C. The mobile phase utilized acetonitrile containing 0.1% formic acid (v/v) as the organic component, and 0.1% (v/v) formic acid in water as the aqueous component. The mobile phase ran as a gradient at 400 μL/min, with the organic component increasing from 5% to 95% over 4 minutes before re-equilibration. The assay was calibrated over the range 2-6250 ng/mL (0.0056 μM-17.44 μM).

[3] = FaSSIF pH 6.5, 2% DMSO, read-out: Kinetic Solubility Fassif pH6.5
[4] = phosphate buffered saline, aqueous buffer, PBS pH 6.5, 2% DMSO, read-out: Kinetic Solubility pH 6.5
[5] = 20.0 mg/kg po vs 5.0 mg/kg iv (Reference 1 column prints iv)

| SMILES | IC50 (P. falciparum NF54) | IC50 (P. falciparum K1) | IC50 (hPI4KB) | solubility kinetic at 2 h [1, 3] | solubility kinetic at 2 h [1, 4] | Apparent T1/2 [2] | Plasma Cl [2] | Vd [2] | Oral Bioavailability ([2]; […] po vs 5.0 mg/kg iv) | Oral Bioavailability [2, 5] |
| --- | --- | --- | --- | --- | --- | --- | --- | --- | --- | --- |
| Nc1ncc(-c2ccc(C(=O)O)cc2)nc1-c1ccc(C(F)(F)F)cc1 [Compound (1), 4-(5-amino-6-(4-(trifluoromethyl)phenyl)pyrazin-2-yl)benzoic acid] | 33 nM | 32 nM | 7700 nM | 178 µM (≈ 64 µg/mL) | 180 µM (≈ 64.7 µg/mL) | 4.9 h | 10.1 mL/min/kg | 4.3 L/kg | 94% |  |
| Nc1ncc(-c2ccc(C(=O)O)cc2)nc1-c1ccc(C(F)(F)F)nc1 [Compound (2), 4-(5-amino-6-(6-(trifluoromethyl)pyridin-3-yl)pyrazin-2-yl)benzoic acid] | 26 nM | 24 nM | 23000 nM | 199 µM (≈ 71.7 µg/mL) | 187 µM (≈ 67.4 µg/mL) | 4.4 h | 16.7 mL/min/kg | 6.4 L/kg |  | 38% |
| NC(=O)c1ccc(-c2cnc(N)c(-c3ccc(C(F)(F)F)cc3)n2)cc1 [Reference 1, reference compound] | 13 nM | 14 nM | 5000 nM | 115 µM (≈ 41.2 µg/mL) | < 5 µM | 1.0 h | 39 mL/min/kg | 3.5 L/kg |  | 25% |
